This is an account of results in PubChem BioAssay AID248 (DTP/NCI, 2004).

The test has as its system L1210 leukemia ip in BDF1 mice, survival T/C. The test is described as follows: NCI In Vivo Anticancer Drug Screen. Data for tumor model L1210 Leukemia (intraperitoneal) in B6D2F1 (BDF1) mice. As to conditions: endpoint: mean survival time, higher = longer survival. The gist of the method: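 Each compound was tested against a transplantable tumor grown in mice. The endpoint was survival, with treated animals benchmarked against vehicle controls as a simple ratio.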

Setting [1] is: dose: 100.0 mg/kg/injection, schedule: Q04DX003 (ip), vehicle: saline.
The mark [2] stands for this setting: dose: 200.0 mg/kg/injection, schedule: Q04DX003 (ip), vehicle: saline.
[3] abbreviates: dose: 25.0 mg/kg/injection, schedule: Q01DX009 (ip), vehicle: water.
Setting [4] is: dose: 100.0 mg/kg/injection, schedule: Q01DX009 (ip), vehicle: Klucel (hydroxypropylcellulose) (HPC).
Where [5] appears, read: dose: 200.0 mg/kg/injection, schedule: Q01DX009 (ip), vehicle: Klucel (hydroxypropylcellulose) (HPC).
[6] abbreviates: dose: 100.0 mg/kg/injection, schedule: Q04DX003 (ip), vehicle: Klucel (hydroxypropylcellulose) (HPC).
Setting [7] is: dose: 200.0 mg/kg/injection, schedule: Q04DX003 (ip), vehicle: Klucel (hydroxypropylcellulose) (HPC).
Setting [8] is: dose: 400.0 mg/kg/injection, schedule: Q04DX003 (ip), vehicle: Klucel (hydroxypropylcellulose) (HPC).
[9] abbreviates: dose: 50.0 mg/kg/injection, schedule: Q01DX009 (ip), vehicle: saline.
[10] abbreviates: dose: 100.0 mg/kg/injection, schedule: Q01DX009 (ip), vehicle: saline.
Where [11] appears, read: dose: 200.0 mg/kg/injection, schedule: Q01DX009 (ip), vehicle: saline.
[12] abbreviates: dose: 200.0 mg/kg/injection, schedule: Q04DX003 (ip), vehicle: saline with Tween-80.
Setting [13] is: dose: 400.0 mg/kg/injection, schedule: Q01DX009 (ip), vehicle: Klucel (hydroxypropylcellulose) (HPC).

Where “and” joins values, the source holds several entries; their conditions need not be identical. Equal values may be shown once. Toxic doses and inconclusive results are not listed.

For `NC(CCCCn1nnc2c(=O)[nH]cnc21)C(=O)O` (configuration not stated), the T/C was 106 % of control under setting [1]; 103 % of control under setting [2]; 97 % of control (dose: 400.0 mg/kg/injection, schedule: Q04DX003 (ip), vehicle: saline).

As for `FC(F)(F)c1nc[nH]c1C(F)(F)F`, the T/C was 103 % of control (dose: 6.25 mg/kg/injection, schedule: Q01DX009 (ip), vehicle: water); 97 % of control (dose: 12.5 mg/kg/injection, schedule: Q01DX009 (ip), vehicle: water); 97 % of control under setting [3].

Consider `c1ccc(Nc2nnnn2C2CCCCC2)cc1`, for which the T/C runs as follows: (dose: 100.0 mg/kg/injection, schedule: Q01DX001 (ip), vehicle: saline with Tween-80) 104 % of control; (dose: 200.0 mg/kg/injection, schedule: Q01DX001 (ip), vehicle: saline with Tween-80) 95 % of control; (dose: 400.0 mg/kg/injection, schedule: Q01DX001 (ip), vehicle: saline with Tween-80) 93 % of control.

On to `CNC(=O)Oc1ccc(/C=N/NC(=O)c2ccncc2)cc1OC`, for which the T/C runs as follows: under setting [4], 97 % of control; under setting [5], 97 % of control.

Consider `O=C1C=CC(=O)N1c1ccc([N+](=O)[O-])cc1`, for which the T/C was 107 % of control (dose: 0.78 mg/kg/injection, schedule: Q04DX003 (ip), vehicle: Klucel (hydroxypropylcellulose) (HPC)); 97 % of control (dose: 1.56 mg/kg/injection, schedule: Q01DX009 (ip), vehicle: Klucel (hydroxypropylcellulose) (HPC)); 93 % of control (dose: 1.56 mg/kg/injection, schedule: Q04DX003 (ip), vehicle: Klucel (hydroxypropylcellulose) (HPC)); 92 % of control (dose: 3.12 mg/kg/injection, schedule: Q01DX009 (ip), vehicle: Klucel (hydroxypropylcellulose) (HPC)); 91 % of control (dose: 3.12 mg/kg/injection, schedule: Q04DX003 (ip), vehicle: Klucel (hydroxypropylcellulose) (HPC)); 92 % of control (dose: 6.25 mg/kg/injection, schedule: Q01DX009 (ip), vehicle: Klucel (hydroxypropylcellulose) (HPC)). Also, the T/C is 92 % of control (dose: 6.25 mg/kg/injection, schedule: Q04DX003 (ip), vehicle: Klucel (hydroxypropylcellulose) (HPC)); 92 % of control (dose: 9.2 mg/kg/injection, schedule: Q01DX009 (ip), vehicle: Klucel (hydroxypropylcellulose) (HPC)); 90 % of control (dose: 14.0 mg/kg/injection, schedule: Q01DX009 (ip), vehicle: Klucel (hydroxypropylcellulose) (HPC)); 95 % of control (dose: 21.0 mg/kg/injection, schedule: Q01DX009 (ip), vehicle: Klucel (hydroxypropylcellulose) (HPC)).

In the case of `[O-][n+]1onc(-c2ccccc2)c1-c1ccccc1`, the T/C is 105 % of control under setting [6], 108 % of control under setting [7] and 108 % of control under setting [8].

Consider `COc1ccc(/C=N\NC(=O)c2ccncc2)cc1`, for which the T/C runs as follows: (dose: 50.0 mg/kg/injection, schedule: Q04DX002 (ip), vehicle: Klucel (hydroxypropylcellulose) (HPC)) 109 % of control; (dose: 100.0 mg/kg/injection, schedule: Q04DX002 (ip), vehicle: Klucel (hydroxypropylcellulose) (HPC)) 113 % of control; (dose: 200.0 mg/kg/injection, schedule: Q04DX002 (ip), vehicle: Klucel (hydroxypropylcellulose) (HPC)) 106 % of control; (dose: 400.0 mg/kg/injection, schedule: Q04DX002 (ip), vehicle: Klucel (hydroxypropylcellulose) (HPC)) 118 % of control.

For `O=N[O-].O=N[O-].[Co].[NH2-].[NH2-].[NH2-].[NH2-]`, the T/C (dose: 100.0 mg/kg/injection, schedule: Q04DX002 (ip), vehicle: saline with Tween-80) was 112 % of control.

In the case of `COc1ccc(C(C#N)CC(=O)c2ccc(OC)c(OCc3ccccc3)c2)cc1OC` (configuration not stated), the T/C is, setting by setting: (dose: 25.0 mg/kg/injection, schedule: Q01DX009 (ip), vehicle: saline) 96 % of control; under setting [9], 102 % of control; under setting [10], 101 % of control; under setting [11], 101 % of control.

For the molecule `C[N+]1(C2CCC3CCC2C3O)CCOCC1` (configuration not stated), the T/C was 106 % of control and 124 % of control under setting [9]; 100 % of control under setting [10]; 103 % of control and 101 % of control under setting [1]; 98 % of control under setting [11]; 97 % of control and 105 % of control under setting [2].

For `CNC(=O)c1nc(C)c(C)[nH]c1=O`, the T/C runs as follows: under setting [3], 98 % of control; (dose: 50.0 mg/kg/injection, schedule: Q01DX009 (ip), vehicle: water) 96 % of control; (dose: 100.0 mg/kg/injection, schedule: Q01DX009 (ip), vehicle: water) 98 % of control; (dose: 100.0 mg/kg/injection, schedule: Q04DX003 (ip), vehicle: water) 103 % of control; (dose: 200.0 mg/kg/injection, schedule: Q01DX009 (ip), vehicle: water) 89 % of control; (dose: 200.0 mg/kg/injection, schedule: Q04DX003 (ip), vehicle: water) 95 % of control.

As to `CC(=O)Nc1ncnc2c1ncn2Cc1ccccc1`, the T/C (dose: 100.0 mg/kg/injection, schedule: Q04DX003 (ip), vehicle: saline with Tween-80) is 99 % of control and the T/C under setting [12] was 93 % of control.

For the molecule `CN1CCC23CCCCC2C1Cc1ccc(O)cc13` (configuration not stated), the T/C (dose: 75.0 mg/kg/injection, schedule: Q01DX001 (ip), vehicle: saline) was 95 % of control.

Turning to `CCCCN(CCCC)CCCNC(=S)Nc1ccccc1`, the T/C reads like this: under setting [4], 94 % of control; under setting [5], 100 % of control.

As for `CN(C)c1ccc(C2OC3(CCCCC3)C[N+]23CCCC3)cc1` (configuration not stated), the T/C (dose: 100.0 mg/kg/injection, schedule: Q04DX003 (ip), vehicle: acetone) was 102 % of control.

As to `Cc1cc2oc(/C=N/Nc3ccc([N+](=O)[O-])cc3[N+](=O)[O-])c(C)c2cc1C`, the T/C under setting [4] is 94 % of control, the T/C under setting [5] was 94 % of control and the T/C under setting [13] is 89 % of control.

Consider `CC(=O)Nc1ccc(N=Nc2ccccc2)cc1F`, for which the T/C is 94 % of control under setting [4]; 98 % of control under setting [6]; 97 % of control under setting [5]; 94 % of control under setting [7]; 97 % of control under setting [13]; 91 % of control under setting [8].

As for `C=C(Br)CNC(=O)C(=O)OCC`, the T/C is 97 % of control (dose: 50.0 mg/kg/injection, schedule: Q01DX009 (ip), vehicle: saline with Tween-80); 94 % of control (dose: 100.0 mg/kg/injection, schedule: Q01DX009 (ip), vehicle: saline with Tween-80); 93 % of control (dose: 132.0 mg/kg/injection, schedule: Q04DX003 (ip), vehicle: saline with Tween-80); 97 % of control (dose: 200.0 mg/kg/injection, schedule: Q01DX009 (ip), vehicle: saline with Tween-80); 90 % of control under setting [12]; 96 % of control (dose: 300.0 mg/kg/injection, schedule: Q04DX003 (ip), vehicle: saline with Tween-80).

In the case of `Nc1ccccc1SC1CC(=O)N(c2ccc(F)cc2)C1=O` (configuration not stated), the T/C (dose: 100.0 mg/kg/injection, schedule: Q04DX003 (ip), vehicle: carboxymethylcellulose (CMC)) is 92 % of control; the T/C (dose: 200.0 mg/kg/injection, schedule: Q04DX003 (ip), vehicle: carboxymethylcellulose (CMC)) was 92 % of control; the T/C (dose: 400.0 mg/kg/injection, schedule: Q04DX003 (ip), vehicle: carboxymethylcellulose (CMC)) was 91 % of control.

For the molecule `CS(=O)(=O)OCC(=O)NCC(O)CNC(=O)COS(C)(=O)=O`, the T/C was 151 % of control (dose: 75.0 mg/kg/injection, schedule: Q01DX015 (ip), vehicle: saline); 153 % of control (dose: 80.0 mg/kg/injection, schedule: Q01DX009 (ip), vehicle: saline); 180 % of control (dose: 120.0 mg/kg/injection, schedule: Q01DX009 (ip), vehicle: saline); 164 % of control (dose: 150.0 mg/kg/injection, schedule: Q01DX015 (ip), vehicle: saline); 156 % of control and 164 % of control (dose: 180.0 mg/kg/injection, schedule: Q01DX009 (ip), vehicle: saline).

Regarding `Nc1ncn(C(=S)Nc2ccccc2)n1`, the T/C (dose: 50.0 mg/kg/injection, schedule: Q01DX001 (ip), vehicle: saline) is 102 % of control; the T/C (dose: 100.0 mg/kg/injection, schedule: Q01DX001 (ip), vehicle: saline) was 98 % of control; the T/C (dose: 200.0 mg/kg/injection, schedule: Q01DX001 (ip), vehicle: saline) was 98 % of control; the T/C (dose: 400.0 mg/kg/injection, schedule: Q01DX001 (ip), vehicle: saline) was 98 % of control.
